Tests used:
[1] = Antiproliferative activity against human MES-SA cells after 72 hrs by MTT assay; assay type: functional, cell-based
HCT-116 = experiment: Antiproliferative activity against human HCT116 cells after 72 hrs by MTT assay; assay type: functional, cell-based; conditions: HCT-116, 72 h
[2] = Antiproliferative activity against human MES-SA/Dx5 cells after 72 hrs by MTT assay; assay type: functional, cell-based; conditions: MES-SA/Dx5, 72 h
HeLa = experiment: Antiproliferative activity against human HeLa cells after 72 hrs by MTT assay; assay type: functional, cell-based
Daudi = experiment: Antiproliferative activity against human Daudi cells after 72 hrs by MTT assay; assay type: functional, cell-based
MES-SA = experiment: Ratio of IC50 for human MES-SA/Dx5 cells to IC50 for human MES-SA cells; assay type: functional
Ishikawa = experiment: Antiproliferative activity against human Ishikawa cells after 72 hrs by MTT assay; assay type: functional, cell-based
[3] = Antiproliferative activity against human FM3 cells after 72 hrs by MTT assay; assay type: functional, cell-based; conditions: FM3, 72 h

Row | Compound | IC50 (HCT-116) [µM] | IC50 (HeLa) [µM] | IC50 (Daudi) [µM] | IC50 [1] [µM] | IC50 [2] [µM] | Ratio IC50 (MES-SA) | IC50 (Ishikawa) [µM] | IC50 [3] [µM]
1 | CC(C)n1cnc2cc3c(=O)c4ccccc4[nH]c3nc21 | 37.4 | 29.7 | 34.7 | 37.6 | 46 | 1.23 | 62.5 | 66.7
2 | O=c1c2ccccc2[nH]c2nc3c(cc12)ncn3C1CCCC1 | 42.4 | 21.4 | 15.3 | 20 | 17.2 | 0.86 | 60.8 | 30.1
3 | O=c1c2ccccc2[nH]c2nc3c(cc12)ncn3-c1ccccc1 | 73.1 | 27.6 | 31.3 | 47.4 | 34.4 | 0.73 | 50 | 51.1
4 | CC(C)n1cnc2cc3c(=O)c4ccccc4n(CCO)c3nc21 | 40.4 | 13.2 | 22.1 | 34.6 | 32.6 | 0.94 | 66.6 | 45.7
5 | O=c1c2ccccc2n(CCO)c2nc3c(cc12)ncn3C1CCCC1 | 48.7 | 23.4 | 19 | 22.9 | 22.2 | 0.97 | 66.4 | 66.4
6 | O=C1c2c(O)ccc(O)c2C(=O)c2c(NCCNCCO)ccc(NCCNCCO)c21 [MITOXANTRONE] | 0.025 | 0.044 | 0.005 | 0.006 | 0.073 | 12.17 | 0.01 | 0.013

Continued, in another order:

Row | IC50 (HCT-116) [µM] | IC50 (HeLa) [µM] | IC50 (Daudi) [µM] | Compound | IC50 [1] [µM] | IC50 [2] [µM] | Ratio IC50 (MES-SA) | IC50 (Ishikawa) [µM] | IC50 [3] [µM]
7 | 8.2 | 11.7 | 10.6 | CCN(CC)CCn1c2ccccc2c(=O)c2cc3ncn(C4CCCC4)c3nc21 | 10.6 | 15.5 | 1.46 | 28.6 | 28
8 | 12.9 | 7.27 | 4.93 | CCN(CC)CCn1c2ccccc2c(=O)c2cc3ncn(-c4ccccc4)c3nc21 | 5.2 | 10.4 | 1.99 | 11.3 | 4.83
9 | 32.9 | 15.3 | 20.5 | O=c1c2ccccc2n(CCO)c2nc3c(cc12)ncn3-c1ccccc1 | 51.7 | 47.9 | 0.93 | 101 | 74.8
10 | 12.4 | 9.32 | 12.9 | CC(C)n1cnc2cc3c(=O)c4ccccc4n(CCN(C)C)c3nc21 | 22 | 16.1 | 0.73 | 39.4 | 17
11 | 30.4 | 28.9 | 18.9 | CN(C)CCn1c2ccccc2c(=O)c2cc3ncn(C4CCCC4)c3nc21 | 32.8 | 25 | 0.76 | 39.1 | 42.4
12 | 27.9 | 23.3 | 33 | CN(C)CCn1c2ccccc2c(=O)c2cc3ncn(-c4ccccc4)c3nc21 | 47.3 | 41.7 | 0.88 | 43.6 | 29.8
13 | 24.5 | 21.6 | 18 | CCN(CC)CCn1c2ccccc2c(=O)c2cc3ncn(C(C)C)c3nc21 | 25.7 | 23.1 | 0.9 | 63.3 | 50.6
14 | 0.18 | 0.337 | 0.127 | COc1cccc2c1C(=O)c1c(O)c3c(c(O)c1C2=O)C[C@@](O)(C(=O)CO)C[C@@H]3O[C@H]1C[C@H](N)[C@H](O)[C@H](C)O1 [DOXORUBICIN] | 0.035 | 2.81 | 80.2 | 0.1 | 0.123

From ChEMBL document CHEMBL3588860, “Synthesis and antiproliferative activity of some novel benzo-fused imidazo[1,8]naphthyridinones” (Bioorg Med Chem Lett, 2015)
